Experimental data: paper PMC7531004, “Discovery of gramicidin A analogues with altered activities by multidimensional screening of a one-bead-one-compound library” (Nature Communications, 2020)
Where a SMILES comes first, the peptide text is derived from it. [ ]: non-standard residue; d: D form. The star is where a group is joined. NHCH2CH2OH = OCCN*; For = O=C*

How the values were obtained:
[1] = H+/Na+ transport assay of bead-derived peptides (one-point); format: biochemical; design: key: relative activity; mean of two control wells = 1.00; conditions: bead-derived peptide solution, EYPC/EYPG LUVs;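 note: relative to parent gramicidin A activity set to 1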
Procedure, shortened: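 Pyranine (1.0 mM)-loaded LUVs containing egg yolk phosphatidylglycerol were prepared by film hydration, sonication and extrusion, then mixed with diluted bead-derived peptide in 96-well format and vortexed 30 min at room temperature. Fluorescence was normalized between untreated LUVs (0%) and Triton X-100 lysis (100%).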

[2] = cell viability/%
Procedure, shortened: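 P388 cells at 1 × 10^4 cells/mL (final) were exposed to library peptides (stocks diluted 250-fold in RPMI1640/10% FBS) for 92 h at 37 °C, 5% CO2. Viable cells were counted by WST-1/1-methoxy PMS (4 h), absorbance 415 nm, and expressed as cell viability (%).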

[3] = tested on: Streptococcus pyogenes SSI-9; assay: Antibacterial activity assay of bead-derived peptides (three concentrations); format: cell-based; design: key: +++: inhibition by the 640-fold diluted peptide solution; ++: inhibition by the 160-fold diluted solution; +: inhibition by the 40-fold diluted solution; -: no inhibition; conditions: S. pyogenes, bead-derived peptide solution, three concentrations
Procedure, shortened: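 Undiluted, 4-fold and 16-fold DMSO-diluted peptide stocks; S. pyogenes SSI-9, 2 × 10^5 CFU, cation-adjusted MHB (50 mg/L Ca2+, 25 mg/L Mg2+) + 5% laked horse blood; 37 °C, 18 h; readout = cell pellet visible or not.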

Compound	H+/Na+ transport activity normalized against the value of 1 (1.00) [1]	viability [2]	antibacterial activity [3]
CC(C)C[C@@H](NC(=O)[C@H](C)NC(=O)[C@H](NC(=O)[C@H](C)NC(=O)CNC(=O)[C@@H](NC=O)C(C)C)[C@H](C)O)C(=O)N[C@H](C(=O)N[C@@H](C(=O)N[C@@H](Cc1c[nH]c2ccccc12)C(=O)N[C@H](CC(C)C)C(=O)N[C@@H](Cc1c[nH]c2ccccc12)C(=O)N[C@H](CC(C)C)C(=O)N[C@@H](Cc1c[nH]c2ccccc12)C(=O)N[C@@H](C(=O)N[C@@H](Cc1c[nH]c2ccccc12)C(=O)NCCO)C(C)C)C(C)C)C(C)C [compound 4605] (For-VGA[dT]A[dL]V[dV]W[dL]W[dL]W[dV]W-NHCH2CH2OH)	1.35	100%	-
CC(C)C[C@@H](NC(=O)[C@H](C)NC(=O)[C@H](NC(=O)[C@H](C)NC(=O)CNC(=O)[C@@H](NC=O)C(C)C)[C@H](C)O)C(=O)N[C@H](C(=O)N[C@H](CC(C)C)C(=O)N[C@@H](Cc1c[nH]c2ccccc12)C(=O)N[C@@H](C(=O)N[C@@H](Cc1c[nH]c2ccccc12)C(=O)N[C@H](CC(C)C)C(=O)N[C@@H](Cc1c[nH]c2ccccc12)C(=O)N[C@H](CC(C)C)C(=O)N[C@@H](Cc1c[nH]c2ccccc12)C(=O)NCCO)C(C)C)C(C)C [compound 4687] (For-VGA[dT]A[dL]V[dL]W[dV]W[dL]W[dL]W-NHCH2CH2OH)	1.04	94.4%	-
CC(C)C[C@@H](NC(=O)[C@H](C)NC(=O)CNC(=O)[C@@H](NC=O)C(C)C)C(=O)N[C@@H](C)C(=O)N[C@H](CC(C)C)C(=O)N[C@H](C(=O)N[C@@H](C(=O)N[C@@H](Cc1c[nH]c2ccccc12)C(=O)N[C@@H](C(=O)N[C@@H](Cc1c[nH]c2ccccc12)C(=O)N[C@@H](C(=O)N[C@@H](Cc1c[nH]c2ccccc12)C(=O)N[C@H](CC(C)C)C(=O)N[C@@H](Cc1c[nH]c2ccccc12)C(=O)NCCO)C(C)C)C(C)C)[C@H](C)O)C(C)C [compound 4784] (For-VGA[dL]A[dL]V[dT]W[dV]W[dV]W[dL]W-NHCH2CH2OH)	1.19	100%	-
CC(C)C[C@@H](NC(=O)[C@H](C)NC(=O)CNC(=O)[C@@H](NC=O)C(C)C)C(=O)N[C@@H](C)C(=O)N[C@@H](C(=O)N[C@H](C(=O)N[C@H](CC(C)C)C(=O)N[C@@H](Cc1c[nH]c2ccccc12)C(=O)N[C@@H](C(=O)N[C@@H](Cc1c[nH]c2ccccc12)C(=O)N[C@H](CC(C)C)C(=O)N[C@@H](Cc1c[nH]c2ccccc12)C(=O)N[C@@H](C(=O)N[C@@H](Cc1c[nH]c2ccccc12)C(=O)NCCO)[C@H](C)O)[C@H](C)O)C(C)C)C(C)C [compound 4868] (For-VGA[dL]A[dV]V[dL]W[dT]W[dL]W[dT]W-NHCH2CH2OH)	1.06	100%	-
CNC(=O)C[C@@H](NC(=O)[C@H](Cc1c[nH]c2ccccc12)NC(=O)[C@@H](CC(C)C)NC(=O)[C@H](Cc1c[nH]c2ccccc12)NC(=O)[C@H](NC(=O)[C@H](Cc1c[nH]c2ccccc12)NC(=O)[C@H](NC(=O)[C@@H](NC(=O)[C@H](NC(=O)[C@H](C)NC(=O)[C@@H](CC(C)C)NC(=O)[C@H](C)NC(=O)CNC(=O)[C@@H](NC=O)C(C)C)C(C)C)C(C)C)C(C)C)C(C)C)C(=O)N[C@@H](Cc1c[nH]c2ccccc12)C(=O)NCCO [compound 4898] (For-VGA[dL]A[dV]V[dV]W[dV]W[dL]W[dD](NHMe)W-NHCH2CH2OH)	1.21	100%	-
CC(C)C[C@@H](NC(=O)[C@H](C)NC(=O)CNC(=O)[C@@H](NC=O)C(C)C)C(=O)N[C@@H](C)C(=O)N[C@H](CC(C)C)C(=O)N[C@H](C(=O)N[C@H](CC(C)C)C(=O)N[C@@H](Cc1c[nH]c2ccccc12)C(=O)N[C@H](CC(C)C)C(=O)N[C@@H](Cc1c[nH]c2ccccc12)C(=O)N[C@H](CC(C)C)C(=O)N[C@@H](Cc1c[nH]c2ccccc12)C(=O)N[C@@H](C(=O)N[C@@H](Cc1c[nH]c2ccccc12)C(=O)NCCO)[C@H](C)O)C(C)C [compound 5006] (For-VGA[dL]A[dL]V[dL]W[dL]W[dL]W[dT]W-NHCH2CH2OH)	1.12	100%	-
CC(C)C[C@@H](NC(=O)[C@H](C)NC(=O)CNC(=O)[C@@H](NC=O)C(C)C)C(=O)N[C@@H](C)C(=O)N[C@@H](C(=O)N[C@H](C(=O)N[C@@H](C(=O)N[C@@H](Cc1c[nH]c2ccccc12)C(=O)N[C@@H](C(=O)N[C@@H](Cc1c[nH]c2ccccc12)C(=O)N[C@@H](C(=O)N[C@@H](Cc1c[nH]c2ccccc12)C(=O)N[C@H](CC(C)C)C(=O)N[C@@H](Cc1c[nH]c2ccccc12)C(=O)NCCO)C(C)C)C(C)C)C(C)C)C(C)C)C(C)C [compound 5056] (For-VGA[dL]A[dV]V[dV]W[dV]W[dV]W[dL]W-NHCH2CH2OH)	1.01	100%	+
CNC(=O)C[C@@H](NC(=O)[C@H](C)NC(=O)[C@H](NC(=O)[C@H](C)NC(=O)CNC(=O)[C@@H](NC=O)C(C)C)C(C)C)C(=O)N[C@H](C(=O)N[C@@H](C(=O)N[C@@H](Cc1c[nH]c2ccccc12)C(=O)N[C@@H](C(=O)N[C@@H](Cc1c[nH]c2ccccc12)C(=O)N[C@H](CC(C)C)C(=O)N[C@@H](Cc1c[nH]c2ccccc12)C(=O)N[C@H](CC(C)C)C(=O)N[C@@H](Cc1c[nH]c2ccccc12)C(=O)NCCO)C(C)C)C(C)C)C(C)C [compound 5211] (For-VGA[dV]A[dD](NHMe)V[dV]W[dV]W[dL]W[dL]W-NHCH2CH2OH)	1.05	100%	-
CNC(=O)C[C@@H](NC(=O)[C@H](Cc1c[nH]c2ccccc12)NC(=O)[C@H](NC(=O)[C@@H](NC(=O)[C@@H](CC(C)C)NC(=O)[C@H](C)NC(=O)[C@@H](CC(C)C)NC(=O)[C@H](C)NC(=O)CNC(=O)[C@@H](NC=O)C(C)C)C(C)C)C(C)C)C(=O)N[C@@H](Cc1c[nH]c2ccccc12)C(=O)N[C@@H](C(=O)N[C@@H](Cc1c[nH]c2ccccc12)C(=O)N[C@@H](C(=O)N[C@@H](Cc1c[nH]c2ccccc12)C(=O)NCCO)C(C)C)C(C)C [compound 5255] (For-VGA[dL]A[dL]V[dV]W[dD](NHMe)W[dV]W[dV]W-NHCH2CH2OH)	1.25	100%	-
CNC(=O)C[C@@H](NC(=O)[C@H](Cc1c[nH]c2ccccc12)NC(=O)[C@@H](CC(C)C)NC(=O)[C@@H](NC(=O)[C@@H](CC(C)C)NC(=O)[C@H](C)NC(=O)[C@H](NC(=O)[C@H](C)NC(=O)CNC(=O)[C@@H](NC=O)C(C)C)[C@H](C)O)C(C)C)C(=O)N[C@@H](Cc1c[nH]c2ccccc12)C(=O)N[C@H](CC(C)C)C(=O)N[C@@H](Cc1c[nH]c2ccccc12)C(=O)N[C@H](CC(C)C)C(=O)N[C@@H](Cc1c[nH]c2ccccc12)C(=O)NCCO [compound 5284] (For-VGA[dT]A[dL]V[dL]W[dD](NHMe)W[dL]W[dL]W-NHCH2CH2OH)	1.02	100%	-
CC(C)C[C@@H](NC(=O)[C@H](C)NC(=O)CNC(=O)[C@@H](NC=O)C(C)C)C(=O)N[C@@H](C)C(=O)N[C@@H](C(=O)N[C@H](C(=O)N[C@@H](C(=O)N[C@@H](Cc1c[nH]c2ccccc12)C(=O)N[C@@H](C(=O)N[C@@H](Cc1c[nH]c2ccccc12)C(=O)N[C@@H](C(=O)N[C@@H](Cc1c[nH]c2ccccc12)C(=O)N[C@@H](C(=O)N[C@@H](Cc1c[nH]c2ccccc12)C(=O)NCCO)C(C)C)C(C)C)C(C)C)C(C)C)C(C)C)[C@H](C)O [compound 5343] (For-VGA[dL]A[dT]V[dV]W[dV]W[dV]W[dV]W-NHCH2CH2OH)	1.33	100%	-
CC(C)C[C@@H](NC(=O)[C@H](C)NC(=O)[C@H](NC(=O)[C@H](C)NC(=O)CNC(=O)[C@@H](NC=O)C(C)C)[C@H](C)O)C(=O)N[C@H](C(=O)N[C@H](CC(C)C)C(=O)N[C@@H](Cc1c[nH]c2ccccc12)C(=O)N[C@@H](C(=O)N[C@@H](Cc1c[nH]c2ccccc12)C(=O)N[C@@H](C(=O)N[C@@H](Cc1c[nH]c2ccccc12)C(=O)N[C@H](CC(C)C)C(=O)N[C@@H](Cc1c[nH]c2ccccc12)C(=O)NCCO)C(C)C)[C@H](C)O)C(C)C [compound 5532] (For-VGA[dT]A[dL]V[dL]W[dT]W[dV]W[dL]W-NHCH2CH2OH)	1.06	100%	-
CNC(=O)C[C@@H](NC(=O)[C@@H](NC(=O)[C@H](NC(=O)[C@H](C)NC(=O)[C@H](NC(=O)[C@H](C)NC(=O)CNC(=O)[C@@H](NC=O)C(C)C)C(C)C)C(C)C)C(C)C)C(=O)N[C@@H](Cc1c[nH]c2ccccc12)C(=O)N[C@H](CC(C)C)C(=O)N[C@@H](Cc1c[nH]c2ccccc12)C(=O)N[C@@H](C(=O)N[C@@H](Cc1c[nH]c2ccccc12)C(=O)N[C@@H](C(=O)N[C@@H](Cc1c[nH]c2ccccc12)C(=O)NCCO)C(C)C)C(C)C [compound 5536] (For-VGA[dV]A[dV]V[dD](NHMe)W[dL]W[dV]W[dV]W-NHCH2CH2OH)	1.45	100%	-
